In PubChem BioAssay AID248 (DTP/NCI, 2004):
Where “and” joins values, the source holds several entries; their conditions need not be identical. Identical values can stand only once. Toxic doses and inconclusive results are not listed. No stated cut-off is given here; in the data, active means T/C of 150% or more; inactive means T/C below 125%.

Test system: L1210 leukemia ip in BDF1 mice, survival T/C
Assay: NCI In Vivo Anticancer Drug Screen. Data for tumor model L1210 Leukemia (intraperitoneal) in B6D2F1 (BDF1) mice
Conditions: endpoint: mean survival time, higher = longer survival
How it was run: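 Tumor was transplanted into mice, which were then dosed with test compound or vehicle alone. Survival was recorded for each group, and the treated figure was expressed relative to the control figure.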

[1] = dose: 100.0 mg/kg/injection, schedule: Q01DX009 (ip), vehicle: saline with Tween-80
[2] = dose: 100.0 mg/kg/injection, schedule: Q04DX003 (ip), vehicle: saline with Tween-80
[3] = dose: 200.0 mg/kg/injection, schedule: Q01DX009 (ip), vehicle: saline with Tween-80
[4] = dose: 200.0 mg/kg/injection, schedule: Q04DX003 (ip), vehicle: saline with Tween-80
[5] = dose: 400.0 mg/kg/injection, schedule: Q01DX009 (ip), vehicle: saline with Tween-80
[6] = dose: 400.0 mg/kg/injection, schedule: Q04DX003 (ip), vehicle: saline with Tween-80
[7] = dose: 75.0 mg/kg/injection, schedule: Q01DX001 (ip), vehicle: carboxymethylcellulose (CMC)
[8] = dose: 150.0 mg/kg/injection, schedule: Q01DX001 (ip), vehicle: carboxymethylcellulose (CMC)
[9] = dose: 25.0 mg/kg/injection, schedule: Q04DX003 (ip), vehicle: saline
[10] = dose: 50.0 mg/kg/injection, schedule: Q04DX003 (ip), vehicle: saline
[11] = dose: 100.0 mg/kg/injection, schedule: Q04DX003 (ip), vehicle: saline
[12] = dose: 100.0 mg/kg/injection, schedule: Q01DX009 (ip), vehicle: saline
[13] = dose: 200.0 mg/kg/injection, schedule: Q01DX009 (ip), vehicle: other
[14] = dose: 200.0 mg/kg/injection, schedule: Q01DX009 (ip), vehicle: saline
[15] = dose: 200.0 mg/kg/injection, schedule: Q04DX003 (ip), vehicle: saline
[16] = dose: 400.0 mg/kg/injection, schedule: Q01DX009 (ip), vehicle: saline
[17] = dose: 400.0 mg/kg/injection, schedule: Q04DX003 (ip), vehicle: saline

Measured: T/C

C=CCC(C#N)(C(=O)OCC)/C(C)=C/C (configuration not stated)
inactive: dose: 75.0 mg/kg/injection, schedule: Q01DX001 (ip), vehicle: other 100 % of control | dose: 150.0 mg/kg/injection, schedule: Q01DX001 (ip), vehicle: other 103 % of control | dose: 300.0 mg/kg/injection, schedule: Q01DX001 (ip), vehicle: other 97 % of control

CC(C)N(CCSc1ncnc2nc[nH]c12)C(C)C
inactive: dose: 75.0 mg/kg/injection, schedule: Q01DX001 (ip), vehicle: saline 96 % of control

COc1cccc(OC)c1OC(=O)NS(=O)(=O)c1ccc(Cl)cc1
inactive: [1] 116 % of control | [2] 104 % of control | [3] 98 % of control | [4] 97 % of control | [5] 106 % of control | [6] 103 % of control

CCOC(CNC(=S)Nc1ccccc1)OCC
inactive: dose: 100.0 mg/kg/injection, schedule: Q01DX001 (ip), vehicle: carboxymethylcellulose (CMC) 89 % of control | dose: 200.0 mg/kg/injection, schedule: Q01DX001 (ip), vehicle: carboxymethylcellulose (CMC) 95 % of control | dose: 400.0 mg/kg/injection, schedule: Q01DX001 (ip), vehicle: carboxymethylcellulose (CMC) 95 % of control

CCC(CCN(CC=C(C)C)CC=C(C)C)(C(N)=O)c1cccc2ccccc12 (configuration not stated)
inactive: dose: 6.25 mg/kg/injection, schedule: Q01DX009 (ip), vehicle: Klucel (hydroxypropylcellulose) (HPC) 96 % of control | dose: 6.25 mg/kg/injection, schedule: Q04DX003 (ip), vehicle: Klucel (hydroxypropylcellulose) (HPC) 107 % of control | dose: 12.5 mg/kg/injection, schedule: Q01DX009 (ip), vehicle: Klucel (hydroxypropylcellulose) (HPC) 101 % of control | dose: 12.5 mg/kg/injection, schedule: Q04DX003 (ip), vehicle: Klucel (hydroxypropylcellulose) (HPC) 100 % of control | dose: 25.0 mg/kg/injection, schedule: Q01DX009 (ip), vehicle: Klucel (hydroxypropylcellulose) (HPC) 96 % of control | dose: 25.0 mg/kg/injection, schedule: Q04DX003 (ip), vehicle: Klucel (hydroxypropylcellulose) (HPC) 102 % of control

CN1C(c2ccc(Cl)cc2)OCC1(C)C (configuration not stated)
inactive: dose: 100.0 mg/kg/injection, schedule: Q04DX003 (ip), vehicle: saline sonified 90 % of control | dose: 200.0 mg/kg/injection, schedule: Q04DX003 (ip), vehicle: saline sonified 92 % of control

COC1=C(Cl)C(OC)(OC)C(Cl)=C1Cl
inactive: [7] 107 % of control | [8] 102 % of control | dose: 300.0 mg/kg/injection, schedule: Q01DX001 (ip), vehicle: carboxymethylcellulose (CMC) 104 % of control

CCCCCCC(=O)C1C(c2ccc(N(C)C)cc2)CC(=O)C(CCCCC)C1c1ccc(N(C)C)cc1 (configuration not stated)
inactive: [1] 86 % of control | [2] 89 % of control | [3] 95 % of control | [4] 90 % of control | [5] 95 % of control | [6] 92 % of control

O=C(c1ccccc1)N1CCN(C(=O)c2ccccc2)C1
inactive: dose: 100.0 mg/kg/injection, schedule: Q01DX009 (ip), vehicle: Klucel (hydroxypropylcellulose) (HPC) 91 % of control | dose: 200.0 mg/kg/injection, schedule: Q01DX009 (ip), vehicle: Klucel (hydroxypropylcellulose) (HPC) 98 % of control | dose: 400.0 mg/kg/injection, schedule: Q01DX009 (ip), vehicle: Klucel (hydroxypropylcellulose) (HPC) 104 % of control

Cc1cccc(C[As](C)(=O)O)c1
inactive: [9] 94 % of control | [10] 98 % of control | [11] 100 % of control and 103 % of control

O=C(NC(CSSCC(NC(=O)OCc1ccccc1)C(=O)O)C(=O)O)OCc1ccccc1 (configuration not stated)
inactive: dose: 85.0 mg/kg/injection, schedule: Q01DX009 (ip), vehicle: other 98 % of control | [12] 94 % of control and 98 % of control | dose: 100.0 mg/kg/injection, schedule: Q04DX003 (ip), vehicle: other 98 % of control | [11] 90 % of control | dose: 135.0 mg/kg/injection, schedule: Q01DX009 (ip), vehicle: other 88 % of control | [13] 97 % of control | [14] 118 % of control and 92 % of control | dose: 200.0 mg/kg/injection, schedule: Q04DX003 (ip), vehicle: other 88 % of control | [15] 102 % of control | dose: 300.0 mg/kg/injection, schedule: Q01DX009 (ip), vehicle: other 99 % of control | [16] 94 % of control and 104 % of control | dose: 400.0 mg/kg/injection, schedule: Q04DX003 (ip), vehicle: other 96 % of control | [17] 101 % of control

C=CCOCC(O)CN(C)C1CCCCC1 (configuration not stated)
inactive: dose: 25.0 mg/kg/injection, schedule: Q01DX009 (ip), vehicle: saline 97 % of control | [9] 106 % of control | dose: 50.0 mg/kg/injection, schedule: Q01DX009 (ip), vehicle: saline 98 % of control | [10] 103 % of control | [12] 95 % of control | [11] 100 % of control and 104 % of control

CC(=O)N(C1=C(Cl)C(=O)c2ccccc2C1=O)c1ccc(Cl)cc1
inactive: [7] 93 % of control | [8] 92 % of control

Cn1c(=O)n(OS(=O)(=O)c2ccccc2)c(=O)c2ccccc21
inactive: dose: 100.0 mg/kg/injection, schedule: Q01DX009 (ip), vehicle: other 107 % of control | [13] 96 % of control | dose: 400.0 mg/kg/injection, schedule: Q01DX009 (ip), vehicle: other 98 % of control

CC(=O)OCC(C)(C)c1ccccc1
inactive: dose: 100.0 mg/kg/injection, schedule: Q04DX002 (ip), vehicle: saline 105 % of control | dose: 200.0 mg/kg/injection, schedule: Q04DX002 (ip), vehicle: saline 97 % of control | dose: 400.0 mg/kg/injection, schedule: Q04DX002 (ip), vehicle: saline 105 % of control

CCOC(=O)C1(C(=O)OCC)CC(C)C1
inactive: [12] 101 % of control | [11] 101 % of control | [14] 108 % of control | [15] 93 % of control | [16] 96 % of control | [17] 104 % of control

CC(C)(C)c1cc(NS(=O)(=O)c2ccccc2)c(N=[N+]=[N-])c(Cl)c1NS(=O)(=O)c1ccccc1
inactive: dose: 100.0 mg/kg/injection, schedule: Q04DX002 (ip), vehicle: saline with Tween-80 102 % of control | dose: 200.0 mg/kg/injection, schedule: Q04DX002 (ip), vehicle: saline with Tween-80 91 % of control | dose: 400.0 mg/kg/injection, schedule: Q04DX002 (ip), vehicle: saline with Tween-80 102 % of control

O=C(O)c1ccc(CCc2cccnc2)cc1
inactive: dose: 100.0 mg/kg/injection, schedule: Q01DX001 (ip), vehicle: saline with Tween-80 96 % of control | dose: 200.0 mg/kg/injection, schedule: Q01DX001 (ip), vehicle: saline with Tween-80 98 % of control

N#CCCCI
inactive: dose: 50.0 mg/kg/injection, schedule: Q04DX003 (ip), vehicle: acetone 96 % of control | dose: 100.0 mg/kg/injection, schedule: Q04DX003 (ip), vehicle: acetone 100 % of control | dose: 200.0 mg/kg/injection, schedule: Q04DX003 (ip), vehicle: acetone 105 % of control
